Source: article PMC7449217, “The FDA-Approved Drug Nelfinavir Inhibits Lytic Cell-Free but Not Cell-Associated Nonlytic Transmission of Human Adenovirus” (Antimicrobial Agents and Chemotherapy, 2020)
Counter-ions that a name gives are not always drawn. Like-named read-outs stand apart in the source and are kept apart here.

Assays:
HeLa cells = format: cell-based; conditions: human
Experimental: (§1) Per 96-well plate, 15,000 A549 cells, 10,000 HeLa cells, 30,000 HBECs, 30,000 HCE cells, or 30,000 CMT-93 cells were seeded in 100 μl of the respective supplemented medium and allowed to settle for 1 h at room temperature (RT) prior to cell culture incubation at 37°C with 5% CO2 and 95% humidity. The following day, the medium was replaced with 50 μl of the respective virus stock dilution giving rise to 5 to 50 plaques per 96-well plate. Fifty microliters of nelfinavir to obtain a 0.1 to 50 μM final concentration or the DMSO solvent control was also added, both in supplemented medium. For each experiment, a noninfected, treated control was performed. For uphill plaque assays, the medium volume was increased to 150 μl with identical virus and drug concentrations. For wash-in/washout experiments, the virus was incubated on cells in supplemented medium for 1 h at 37°C, cells were washed with PBS, and a 100-μl drug dilution in supplemented medium was added. All experiments were performed in four technical replicates or as indicated. Cells were incubated under standard cell culture conditions. At the indicated times postinfection, the cells were fixed, and the nuclei were stained for 1 h at RT by the addition of 33 μl 16% (wt/vol) paraformaldehyde (PFA) and 4 μg/ml Hoechst 33342 (Sigma-Aldrich, St. Louis, MO, USA) in PBS. Cells were washed three times with PBS and stored in PBS supplemented with 0.02% N3 for infections with viruses harboring a GFP transgene. For wild-type (wt) viruses, cells were quenched in PBS supplemented with 50 mM NH4Cl, permeabilized using 0.2% (vol/vol) Triton X-100 in PBS, and blocked with 0.5% (wt/vol) bovine serum albumin (BSA) in PBS. Cells were incubated with 381.7 ng/ml mouse anti-HAdV hexon protein antibody (Mab8052; Sigma-Aldrich, St. Louis, MO, USA) and subsequently stained using 2 μg/ml goat anti-mouse-Alexa Fluor 594 (catalog number A21203 or A32742; Thermo Fisher Scientific, Waltham, MA, USA). Plates were imaged on either an IXM-XL or an IXM-C automated high-throughput fluorescence microscope (Molecular Devices, San Jose, CA, USA) using a 4× objective in wide-field mode. Hoechst staining was recorded in the 4′,6-diamidino-2-phenylindole (DAPI) channel, the fluorescein isothiocyanate (FITC)/GFP channel was acquired for viral GFP, and the tetramethyl rhodamine isothiocyanate (TRITC)/Texas Red channel was acquired for hexon immunofluorescence staining.
(§2) The infection phenotype for each well was quantified using Plaque2.0 ([101]). The number of plaques was determined based on the infection signal (viral GFP or hexon immunofluorescence staining). Nuclei stained with Hoechst were segmented by using CellProfiler ([178]). Infected nuclei were classified based on the median infection signal per nucleus in CellProfiler. Data were plotted, and the EC50 (infected and treated cells), the TC50 (noninfected, treated cells), as well as the corresponding standard errors (SE) were determined using curve fitting in GraphPad (version 8.1.2; GraphPad Software, Inc.) using three-parameter inhibitor concentration-versus-response nonlinear regression. The mean TI50 was calculated as the […] ratio of the means. The TI50 SE was calculated by error propagation.

HCE cells = format: cell-based; conditions: human
Experimental: as §1, §2

HBEC = format: cell-based; conditions: human
Experimental: as §1, §2

HAdV-C2-dE3B-GFP [1] = assay: quantification of viral protein expression (CMV-GFP, hexon) in infected A549 cells; format: cell-based, human adenovirus; conditions: 46 hpi, at the tested concentrations
Experimental: Infection, HAdV hexon immunofluorescence staining, and imaging were performed in technical quadruplicates, as described above for the microscopic plaque assay. Single nuclei (Hoechst) were segmented using CellProfiler ([178]). Median GFP and hexon signals per nucleus were measured, and infected nuclei were classified using the median GFP or hexon signal per nucleus. Subsequently, the mean and standard deviation (SD) over all infected nuclei per well were calculated using R version 3.3.2 ([179]). Data were plotted using GraphPad (version 8.1.2; GraphPad Software, Inc.).

HAdV-C2-dE3B-GFP [2] = assay: quantification of infectious progeny in the supernatant, titration on A549 cells; format: cell-based, human adenovirus; conditions: 1.25 μM, 7 dpi, HAdV-C2-dE3B-GFP-infected A549 cells
Experimental: A549 cells were seeded at 480,000 cells per 6-well plate in full DMEM and infected at 1,100 PFU HAdV-C2-dE3B-GFP per well the next day. Following 1 h of warm incubation, the supernatant was removed, and cells were washed with PBS and detached by trypsin digestion. Infected cells were centrifuged and resuspended in fresh medium to remove any unbound input virus and seeded at 180,000 cells/12-well plate in medium supplemented with 1.25, 3, or 10 μM nelfinavir or equivalent amounts of the DMSO solvent control. At the indicated times postinfection, the supernatant was harvested and cleared by centrifugation. Two hundred microliters of PBS/well was added to the infected monolayer. Cells were disrupted by three freeze-thaw cycles, and freon extraction was performed. The supernatant and cell lysate were stored at 4°C until titration on naive A549 cells. PFA-fixed, Hoechst-stained cells were imaged at 44 hpi using a 4× objective (NA, 0.20) on an IXM-XL epifluorescence microscope (Molecular Devices, San Jose, CA, USA). GFP-positive infected cells were classified based on the median nuclear GFP intensity using automated image analysis by CellProfiler ([178]).
Four hundred eighty thousand A549 cells were seeded per 6-well dish, inoculated with 1,100 PFU HAdV-C2-dE3B-GFP/well for 1 h at 37°C, washed with PBS, and detached by trypsin digestion. […]

HAdV-C2-dE3B-GFP [3] = assay: fluorescence-based plaque-forming assay, HeLa cells; format: cell-based, human adenovirus; conditions: for TI50 (TC50/IC50): HAdV-C2-dE3B-GFP in HeLa, 4 dpi, GFP
Experimental: as §1, §2

HAdV-C2-dE3B-GFP-dADP = assay: as above; format: cell-based, human adenovirus; conditions: for TI50 (TC50/IC50): HAdV-C2-dE3B-GFP-dADP in HeLa, 5 dpi, GFP
Experimental: as §1, §2

Cc1c(O)cccc1C(=O)N[C@@H](CSc1ccccc1)[C@H](O)CN1C[C@H]2CCCC[C@H]2C[C@H]1C(=O)NC(C)(C)C [Nelfinavir, Nelfinavir mesylate]
TC50 (HeLa cells; 4 days): 29.85 µM
TC50 (HeLa cells; 5 days): 41.69 µM
TC50 (HCE cells; 5 days): 29.73 µM
TC50 (HCE cells; 8 days): 19.59 µM
TC50 (HBEC; 6 days): 13.33 µM
TC50 (HBEC; 8 days): 12.74 µM
effect on GFP or hexon expression (HAdV-C2-dE3B-GFP [1]): no effect
reduction of total yield of infectious particles in the supernatant (HAdV-C2-dE3B-GFP [2]): 3 orders of magnitude
TI50 (TC50/IC50) (HAdV-C2-dE3B-GFP [3]): 61.03
TI50 (TC50/IC50) (HAdV-C2-dE3B-GFP [3]; listed as nelfinavir): 61.0
EC50 (HAdV-C2-dE3B-GFP [3]; Human adenovirus sp., HeLa): 0.49 µM
TI50 (TC50/IC50) (HAdV-C2-dE3B-GFP-dADP): 8.91
TI50 (TC50/IC50) (HAdV-C2-dE3B-GFP-dADP; listed as nelfinavir): 8.9
EC50 (HAdV-C2-dE3B-GFP-dADP; Human adenovirus sp., HeLa): 4.68 µM
